Measurements taken from patent US11566044B2, “Disulfide bond containing compounds and uses thereof” (THE UNIVERSITY OF QUEENSLAND, priority 2017, dated 2023).

Assay: DTNB assay: stability of the S—S bond to 20% v/v piperidine in DMF (Fmoc-SPPS conditions)
Type: physicochemical
Details: 20% v/v piperidine in DMF for 6 h, absorbance at 308 and 412 nm
Source text: Prior to exploring further applications of the novel disulfide-bridged amino acid, the stability of its —S—S— bond to reagents/conditions employed during Fmoc-SPPS had to be established. For each deprotection step performed during peptide synthesis, a resin bound random amino acid is exposed to basic reagents with 20% v/v piperidine in DMF. —S—S— bond stability to these basic conditions was therefore trialled using a di-Boc protected disulfide bridged amino acid of the invention (compound 11), since the Boc protecting groups themselves would be stable to the basic conditions. […] Premature reduction of the disulfide-containing amino acid by piperidine would lead to the formation of free thiols that react with DTNB releasing NTB^2−, which can be readily identified spectrophotometrically at 412 nm.
DTNB (1 mg) was dissolved in 1 mL of methanol and a 1 mg/mL stock solution was prepared. A DTNB calibration curve was prepared by measurement of the absorbance (λmax=308 nm) over a range of concentrations (5, 10, 15, 20, and 25 μg/mL) in the presence of 20% v/v piperidine in DMF (100 μL). […]
Stability of the disulfide-bridged amino acid (compound 11) to basic conditions was assessed next, where it was first incubated with 20% v/v piperidine in DMF for up to 6 h and from that different concentrations of samples were prepared. […]

Base stability of the S—S bond (free thiols generated/detected): no free thiols were generated/detected
SMILES: COC(=O)[C@H](CSSC(C)(C)CNC(=O)OC(C)(C)C)NC(=O)OC(C)(C)C [compound 11, Boc-Cys(S—SC(CH3)2CH2NH(Boc))—OCH3]
